Like-named read-outs stand apart in the source and are kept apart here.
Experiments:
[1] = target: recombinant SARS-CoV-2 Main protease (Mpro) (Severe acute respiratory syndrome coronavirus 2 (2019-nCoV) (SARS-CoV-2), UniProt P0DTD1); assay: Cov Mpro Biochemical IC50 Assay; conditions: read-out: MPro IC50
SARS-CoV-2-NLuc = assay: microbe, parasite or virus in culture; format: cell-based, SARS Coronavirus 2
[2] = recombinant SARS-CoV-2 Mpro, fluorogenic peptide substrate
[3] = Severe acute respiratory syndrome coronavirus, 48 h, read-out: MPro EC50
[4] = recombinant SARS-CoV-2 Mpro 7.5 nM, fluorogenic peptide substrate 40 μM
[5] = Severe acute respiratory syndrome coronavirus, 48 h; read-out: MPro EC50

C#Cc1cccc(Cl)c1-c1ccc2c(=O)n(-c3cncc4ccccc34)c(=O)[nH]c2c1 [Example 159, 7-(2-chloro-6-ethynyl-phenyl)-3-(4-isoquinolyl)-1H-quinazoline-2,4-dione]
IC50 [1, 2]: 988 nM
EC50 (SARS-CoV-2-NLuc; [3]): 335 nM

COc1cc(-c2cc3c(s2)c(=O)n(-c2cncc4ccccc24)c(=O)n3CCC#N)c(C#N)cc1F (single isomer, unassigned) [Example 968, 2-(1-(2-cyanoethyl)-3-(isoquinolin-4-yl)-2,4-dioxo-1,2,3,4-tetrahydrothieno[3,2-d]pyrimidin-6-yl)-5-fluoro-4-methoxybenzonitrile]
IC50 [1, 4]: 89.1 nM
EC50 (SARS-CoV-2-NLuc; read-out: MPro EC50): 96 nM

Cn1ncc2cncc(-n3c(=O)c4sc(-c5ccc(F)cc5C#N)cc4n(CCC#N)c3=O)c21 [Example 785]
IC50 [1, 4]: 37.8 nM
EC50 (SARS-CoV-2-NLuc; [3]): 137 nM

COc1cc(-c2cc3[nH]c(=O)n(-c4cncc5ccccc45)c(=O)c3cc2OC)c(Cl)cc1F (single isomer, unassigned) [Example 1055, 7-(2-chloro-4-fluoro-5-methoxyphenyl)-3-(isoquinolin-4-yl)-6-methoxyquinazoline-2,4(1H,3H)-dione]
IC50 [1, 4]: 459 nM
EC50 (SARS-CoV-2-NLuc; read-out: MPro EC50): 460 nM

COc1cc(-c2cc3c(s2)c(=O)n(-c2cccnn2)c(=O)n3CCC#N)c(Cl)cc1F [Example 989]
IC50 [1, 4]: 7.31 nM
EC50 (SARS-CoV-2-NLuc; [3]): 19.6 nM

Cn1ncc2cncc(-n3c(=O)c4sc(-c5cc(F)c(F)cc5Cl)cc4n(CCC#N)c3=O)c21 (single isomer, unassigned) [Example 1077, 3-[6-(2-chloro-4,5-difluoro-phenyl)-3-(1-methylpyrazolo[4,3-c]pyridin-7-yl)-2,4-dioxo-thieno[3,2-d]pyrimidin-1-yl]propanenitrile]
IC50 [1, 4]: 485 nM
EC50 (SARS-CoV-2-NLuc; read-out: MPro EC50): > 1000 nM

Cn1cc(-c2cccc(Cl)c2-c2ccc3c(=O)n(-c4cncc5ccccc45)c(=O)[nH]c3c2)c(C(F)(F)F)n1 [Example 265]
IC50 [1, 2]: 25.9 nM
EC50 (SARS-CoV-2-NLuc; [3]): 17.4 nM

O=c1[nH]c2cc(-c3ccccc3Cl)sc2c(=O)n1-c1cncc2ccc(N3C[C@@H]4C[C@H]3CO4)cc12 [Example 393]
IC50 [1, 4]: 9 nM
EC50 (SARS-CoV-2-NLuc; [3]): 12.2 nM

COc1cc(-c2cc3c(s2)c(=O)n(-c2cncc4ncc(C)n24)c(=O)n3CCC#N)c(Cl)cc1F [Example 952]
IC50 [1, 4]: 10.9 nM
EC50 (SARS-CoV-2-NLuc; [3]): 16.2 nM

COc1cc(-c2cc3c(s2)c(=O)n(-c2nncc4ccccc24)c(=O)n3CCC#N)c(Cl)cc1F [Example 929]
IC50 [1, 4]: 5.72 nM
EC50 (SARS-CoV-2-NLuc; [3]): 2.76 nM

Cc1cccc(-c2ccccc2)c1-c1ccc2c(=O)n(-c3cncc4ccccc34)c(=O)[nH]c2c1 [Example 97]
IC50 [1, 2]: 397 nM
EC50 (SARS-CoV-2-NLuc; [3]): 266 nM

COc1cc(-c2cc3c(s2)c(=O)n(-c2cncc4nnn(C)c24)c(=O)n3CCC#N)c(C#N)cc1F [Example 878]
IC50 [1, 4]: 15.8 nM
EC50 (SARS-CoV-2-NLuc; [3]): 90 nM

COc1ccc(Cl)c(-c2cc3[nH]c(=O)n(-c4cncc5nc(C(F)(F)F)sc45)c(=O)c3s2)c1 [Example 487]
IC50 [1, 4]: 908 nM
EC50 (SARS-CoV-2-NLuc; [3]): 742 nM

COc1ccc(Cl)c(-c2cc3[nH]c(=O)n(-c4cncc5ccc(N6CCN(S(C)(=O)=O)CC6)cc45)c(=O)c3s2)c1 [Example 425]
IC50 [1, 4]: 7.69 nM
EC50 (SARS-CoV-2-NLuc; [5]): 30 nM

N#CCCn1c(=O)n(-c2cccnc2)c(=O)c2sc(-c3ccccc3Cl)cc21 [Example 804]
IC50 [1, 4]: 14 nM
EC50 (SARS-CoV-2-NLuc; [5]): 45 nM

COc1ccc(C)c(-c2ccc3c(=O)n(-c4cncc5ccccc45)c(=O)[nH]c3c2)c1 [Example 301]
IC50 [1, 2]: 259 nM
EC50 (SARS-CoV-2-NLuc; [3]): 173 nM

COc1ccc(C)c(-c2cc3[nH]c(=O)n(-c4cncc5ccccc45)c(=O)c3s2)c1 [Example 349]
IC50 [1, 2]: 7.23 nM
EC50 (SARS-CoV-2-NLuc; [3]): 30 nM

Cn1ncc2cncc(-n3c(=O)[nH]c4cc(-c5ccc(F)cc5Cl)sc4c3=O)c21 [Example 662]
IC50 [1, 4]: 40.5 nM
EC50 (SARS-CoV-2-NLuc; [3]): 81.7 nM

O=c1[nH]c2cc(-c3ccccc3Cl)c(F)cc2c(=O)n1-c1cncc2ccccc12 [Example 37]
IC50 [1, 2]: 248 nM
EC50 (SARS-CoV-2-NLuc; [3]): 170 nM

O=c1ccc2cncc(-n3c(=O)[nH]c4cc(-c5ccccc5Cl)sc4c3=O)c2[nH]1 [Example 452, 6-(2-chlorophenyl)-3-(2-oxo-1,2-dihydro-1,6-naphthyridin-8-yl)thieno[3,2-d]pyrimidine-2,4(1H,3H)-dione]
IC50 [1, 4]: 9.24 nM
EC50 (SARS-CoV-2-NLuc; [3]): 82.5 nM

COc1cc(-c2cc3[nH]c(=O)n(-c4cncc5ccccc45)c(=O)c3cc2OC)c(C#N)cc1F [Example 324, 5-fluoro-2-[3-(4-isoquinolyl)-6-methoxy-2,4-dioxo-1H-quinazolin-7-yl]-4-methoxy-benzonitrile]
IC50 [1, 2]: 7.02 nM
EC50 (SARS-CoV-2-NLuc; [5]): 18.1 nM

Cc1ccnc(Cl)c1-c1cc2[nH]c(=O)n(-c3cncc4ccccc34)c(=O)c2s1 [Example 290]
IC50 [1, 2]: 159 nM
EC50 (SARS-CoV-2-NLuc; [3]): 484 nM

COc1cc(-c2cc3[nH]c(=O)n(-c4cncc5nc(C(F)(F)F)sc45)c(=O)c3s2)c(Cl)cc1F [Example 488]
IC50 [1, 4]: 1020 nM
EC50 (SARS-CoV-2-NLuc; [3]): 618 nM

COC1CCN(c2ccc3cncc(-n4c(=O)[nH]c5cc(-c6ccccc6Cl)sc5c4=O)c3c2)CC1 [Example 401]
IC50 [1, 4]: 3.84 nM
EC50 (SARS-CoV-2-NLuc; [3]): 10.6 nM

COc1ccc(-n2cc(-c3cccc(Cl)c3-c3ccc4c(=O)n(-c5cncc6ccccc56)c(=O)[nH]c4c3)c(C)n2)cc1 [Example 283]
IC50 [1, 2]: 240 nM
EC50 (SARS-CoV-2-NLuc; [3]): 94.4 nM

COc1cc(-c2cc3c(s2)c(=O)n(-c2cncc4cnn(CC(F)F)c24)c(=O)n3CCC#N)c(Cl)cc1F [Example 911]
IC50 [1, 4]: 13.2 nM
EC50 (SARS-CoV-2-NLuc; [3]): 11.8 nM

COc1ccc(C#N)c(-c2cc3[nH]c(=O)n(-c4cncc5cnn(C)c45)c(=O)c3s2)c1 [Example 506]
IC50 [1, 4]: 19.6 nM
EC50 (SARS-CoV-2-NLuc; [3]): 99.5 nM

COc1cc(-c2cc3[nH]c(=O)n(-c4cncc5cnn(C)c45)c(=O)c3cc2OC)c(C#N)cc1F [Example 765]
IC50 [1, 4]: 13.9 nM
EC50 (SARS-CoV-2-NLuc; [3]): 94.2 nM

COc1cc(-c2cc3c(s2)c(=O)n(-c2cncc(F)c2C)c(=O)n3CCC#N)c(Cl)cc1F (single isomer, unassigned) [Example 1026, 3-[6-(2-chloro-4-fluoro-5-methoxy-phenyl)-3-(5-fluoro-4-methyl-3-pyridyl)-2,4-dioxo-thieno[3,2-d]pyrimidin-1-yl]propanenitrile]
IC50 [1, 4]: 3.08 nM
EC50 (SARS-CoV-2-NLuc; read-out: MPro EC50): 5.44 nM

O=c1[nH]c2cc(-c3ccccc3Cl)sc2c(=O)n1-c1cncc2c(Cl)cccc12 [Example 592]
IC50 [1, 4]: > 50000 nM
EC50 (SARS-CoV-2-NLuc; [3]): 39500 nM

COc1cc(F)c(Cl)c(-c2ccc3c(=O)n(-c4cncc5ccccc45)c(=O)[nH]c3c2)c1 [Example 212]
IC50 [1, 2]: 831 nM
EC50 (SARS-CoV-2-NLuc; [3]): 752 nM

Cn1ncc2cncc(-n3c(=O)c4sc(-c5ccc(F)cc5Cl)cc4n(CCC#N)c3=O)c21 (single isomer, unassigned) [Example 955, 3-(6-(2-chloro-4-fluorophenyl)-3-(1-methyl-1H-pyrazolo[4,3-c]pyridin-7-yl)-2,4-dioxo-3,4-dihydrothieno[3,2-d]pyrimidin-1(2H)-yl)propanenitrile]
IC50 [1, 4]: 6.81 nM
EC50 (SARS-CoV-2-NLuc; read-out: MPro EC50): 9.67 nM

COc1ccc(Cl)c(-c2cc3[nH]c(=O)n(-c4cncc5ncsc45)c(=O)c3s2)c1 [Example 486]
IC50 [1, 4]: 5.9 nM
EC50 (SARS-CoV-2-NLuc; read-out: MPro EC50): 29.4 nM

Cc1cc(Cl)ncc1-c1cc2[nH]c(=O)n(-c3cncc4ccccc34)c(=O)c2s1 [Example 287]
IC50 [1, 2]: 226 nM
EC50 (SARS-CoV-2-NLuc; [3]): > 922 nM

COc1cnc(Cl)c(-c2ccc3c(=O)n(-c4cncc5ccccc45)c(=O)[nH]c3c2)c1 [Example 257]
IC50 [1, 2]: 500 nM
EC50 (SARS-CoV-2-NLuc; [3]): 1150 nM

O=c1[nH]c2cc(-c3c(Cl)cccc3-c3nc4ccccc4[nH]3)ccc2c(=O)n1-c1cncc2ccccc12 [Example 161, 7-[2-(1H-benzimidazol-2-yl)-6-chloro-phenyl]-3-(4-isoquinolyl)-1H-quinazoline-2,4-dione]
IC50 [1, 2]: 27.1 nM
EC50 (SARS-CoV-2-NLuc; [3]): 129 nM

N#CCCn1c(=O)n(-c2cncc3ccccc23)c(=O)c2sc(-c3cc(F)ccc3Cl)cc21 [Example 831]
IC50 [1, 4]: 8.53 nM
EC50 (SARS-CoV-2-NLuc; [3]): 7.19 nM

COc1cc(-c2ccc3c(=O)n(-c4cncc5ccccc45)c(=O)[nH]c3c2)c(Cl)cn1 [Example 253]
IC50 [1, 2]: 459 nM
EC50 (SARS-CoV-2-NLuc; [3]): 1210 nM

Cc1cccc(C)c1-c1ccc2c(=O)n(-c3cncc4ccccc34)c(=O)[nH]c2c1 [Example 27]
IC50 [1, 2]: 770 nM
EC50 (SARS-CoV-2-NLuc; [3]): 751 nM

COc1ccc(Cl)c(-c2cc3[nH]c(=O)n(-c4cncc5ccc(N6CCS(=O)(=O)CC6)cc45)c(=O)c3s2)c1 [Example 226]
IC50 [1, 2]: 3.74 nM
EC50 (SARS-CoV-2-NLuc; [3]): 23.7 nM

O=c1[nH]c2cc(-c3ccccc3C(F)(F)F)ccc2c(=O)n1-c1cncc2ccccc12 [Example 24, 3-(isoquinolin-4-yl)-7-(2-(trifluoromethyl)phenyl)quinazoline-2,4(1H,3H)-dione]
IC50 [1, 2]: 2730 nM
EC50 (SARS-CoV-2-NLuc; [5]): 2500 nM

Cc1c2c(-n3c(=O)c4sc(-c5ccc(F)cc5Cl)cc4n(CCC#N)c3=O)cncc2nn1C [Example 797, 3-(6-(2-chloro-4-fluorophenyl)-3-(2,3-dimethyl-2H-pyrazolo[3,4-c]pyridin-4-yl)-2,4-dioxo-3,4-dihydrothieno[3,2-d]pyrimidin-1(2H)-yl)propanenitrile]
IC50 [1, 4]: 34.6 nM
EC50 (SARS-CoV-2-NLuc; [3]): 108 nM

COc1ccc(Cl)c(-c2cc3[nH]c(=O)n(-c4cncc5ccc(N6CCn7cc(C(F)(F)F)nc7C6)cc45)c(=O)c3s2)c1 [Example 610]
IC50 [1, 4]: < 2.54 nM
EC50 (SARS-CoV-2-NLuc; [3]): 13.9 nM

O=c1[nH]c2cc(-c3ccccc3Cl)sc2c(=O)n1-c1cncc2ccc(N3CCO[C@H](C(F)(F)F)C3)cc12 [Example 417]
IC50 [1, 4]: 17.8 nM
EC50 (SARS-CoV-2-NLuc; [3]): 160 nM

Cn1c(C(F)(F)F)nc2cncc(-n3c(=O)c4sc(-c5ccccc5C#N)cc4n(CCC#N)c3=O)c21 [Example 858]
IC50 [1, 4]: 263 nM
EC50 (SARS-CoV-2-NLuc; [3]): 741 nM

COc1cnc(C)c(-c2cc3[nH]c(=O)n(-c4cncc5ccccc45)c(=O)c3s2)c1 [Example 718]
IC50 [1, 4]: 106 nM
EC50 (SARS-CoV-2-NLuc; [3]): 371 nM

Source: patent US20240116946A1 (Gilead Sciences, Inc., priority 2022, published 2024)
